Assay results reported in patent US20220267352A1, “RAPAMYCIN ANALOGS AND USES THEREOF” (Anakuria Therapeutics, Inc., priority 2021, published 2022).

How the values were obtained:
Assay type in all cases: cell-based
[1] = system: p-p70 S6 Kinase (Thr389) in MCF-7 cells; experiment: AlphaLISA Ultra pS6K1 assay; conditions: Homo sapiens, 1.5 h; MCF7 cells, 90 min
Method: Example 55: AlphaLISA Ultra pS6K1 Assay
(§1) Assay Protocol: • 1. Seed MCF-7 cells in Corning 3701 plate and incubate for 20˜24 hour. 12,000˜16,000 cells will be seeded in 36 μL medium per well. • 2. Change the culture medium with fresh medium and incubate for another 2 hours. • 3. Add 12 μL (4×) compounds into the cell plate by HAMILTON. Final DMSO concentration is 0.5%. Incubate for 90 minutes. • 4. Aspirate 38 μL by HAMILTON, 10 μL rest per well. • 5. Add 10 μL 2× lysis buffer using HAMILTON; total volume in wells is 20 μL. Allow cells to shake for 30 min. Cover plate by plastic foil and store plate at −80° C. up to analysis. • 6. Thaw cell lysate at RT and transfer 10 μL lysate to assay plate (Optiplate-384). • 7. Add 5 μL acceptor beads into assay plate and incubation for 2 hours • 8. Add 5 μL donor beads and incubation for 2 hours • 9. Count the plate by EnSpire Multimode Plate Reader

mTORC1 over mTORC2 = mTORC1 over mTORC2 selectivity by comparing pS6K1 and pAKT IC50; conditions: by comparing pS6K1 and pAKT IC50, 90 min
Method: as §1, with “Reader […]” for “Reader”
Compounds that are not selective by comparing pS6K1 and pAKT IC50 by kinase assays are indicated by “NO” in the “mTORC1 selective @ 90 min” column of Table 4. […] Compounds that are not selective at the 24 hrs mark are indicated by “NO” in the “mTORC1 selective @ 24 hrs” column of Table 4. “N/A” stands for “not assayed” and “N/C” stands for “not calculated”.

[2] = system: p-Akt 1/2/3 (Ser473) in MCF-7 cells; experiment: AlphaLISA Ultra pAKT assay; conditions: Homo sapiens, 1.5 h; MCF7 cells, 90 min
Method: Example 56: AlphaLISA Ultra pAKT Assay
as §1, with “1.” for “1. Seed”, “16,000˜20,000” for “12,000˜16,000”, “90 minutes.” for “2 hours.”, “Incubate for 90 minutes. • 4.” left out

| IC50 [1] [µM] | IC50 [2] [µM] | Compound | mTORC1 selective @ 90 min (mTORC1 over mTORC2) |
| --- | --- | --- | --- |
| 0.01 to 0.1 | ≥ 1 | CO[C@@H]1C[C@H](C[C@@H](C)[C@@H]2CC(=O)[C@H](C)/C=C(\C)[C@@H](O)[C@@H](OC)C(=O)[C@H](C)C[C@H](C)/C=C/C=C/C=C(\C)[C@@H](OCCOC3COC3)C[C@@H]3CC[C@@H](C)[C@@](O)(O3)C(=O)C(=O)N3CCCC[C@H]3C(=O)O2)CC[C@H]1OCCCN1C[C@@H](C)O[C@@H](C)C1 [I-101, (27E,29E,31E,32E,39R,40S,41R,44R,46S,48S,50S,51S,53R,54R,63R)-51-[(1R)-2-[(1S,3R,4R)-4-[3-[(2S,6R)-2,6-dimethylmorpholin-4-yl]propoxy]-3-methoxy-cyclohexyl]-1-methyl-ethyl]-53,63-dihydroxy-54-methoxy-39,40,41,44,55,56-hexamethyl-50-[2-(oxetan-3-yloxy)ethoxy]-75,76-dioxa-64-azatricyclohexatriaconta-27,29,31(55),32(56)-tetraene-57,58,59,60,61-pentone] | Yes |
| 0.01 to 0.1 | ≥ 1 | COCCOCCO[C@@H]1C[C@@H]2CC[C@@H](C)[C@@](O)(O2)C(=O)C(=O)N2CCCC[C@H]2C(=O)O[C@H]([C@H](C)C[C@@H]2CC[C@@H](OC)[C@H](OC)C2)CC(=O)[C@H](C)/C=C(\C)[C@@H](OC)[C@@H](OC)C(=O)[C@H](C)C[C@H](C)/C=C/C=C/C=C/1C [I-30, (24E,26E,28E,29E,35R,36S,37R,38R,40S,42S,44R,45S,46R,47R,56R)-45-[(1R)-2-[(1S,3R,4R)-3,4-dimethoxycyclohexyl]-1-methyl-ethyl]-56-hydroxy-46,47-dimethoxy-44-[2-(2-methoxyethoxy)ethoxy]-35,36,37,38,48,49-hexamethyl-64,65-dioxa-57-azatricyclohexatriaconta-24,26,28(48),29(49)-tetraene-50,51,52,53,54-pentone] | Yes |
| < 0.001 | ≥ 1 | CO[C@@H]1C[C@H](C[C@@H](C)[C@@H]2CC(=O)[C@H](C)/C=C(\C)[C@@H](O)[C@@H](OC)C(=O)[C@H](C)C[C@H](C)/C=C/C=C/C=C(\C)C(OCC3COCCO3)C[C@@H]3CC[C@@H](C)[C@@](O)(O3)C(=O)C(=O)N3CCCC[C@H]3C(=O)O2)CC[C@H]1OCCCN1CCOCC1 (stereo partly drawn) [I-12, (28E,30E,32E,33E,39R,40S,41R,42R,44S,46S,49S,51R,52R,61R)-48-(1,4-dioxan-2-ylmethoxy)-51,61-dihydroxy-52-methoxy-49-[(1R)-2-[(1S,3R,4R)-3-methoxy-4-(3-morpholinopropoxy)cyclohexyl]-1-methyl-ethyl]-39,40,41,42,53,54-hexamethyl-74,75-dioxa-63-azatricyclohexatriaconta-28,30,32(53),33(54)-tetraene-55,56,57,58,59-pentone] | Yes |
| 0.001 to 0.01 | ≥ 1 | CO[C@@H]1C[C@H](C[C@@H](C)[C@@H]2CC(=O)[C@H](C)/C=C(\C)[C@@H](O)[C@@H](OC)C(=O)[C@H](C)C[C@H](C)/C=C/C=C/C=C(\C)[C@@H](OCCOC3COC3)C[C@@H]3CC[C@@H](C)[C@@](O)(O3)C(=O)C(=O)N3CCCC[C@H]3C(=O)O2)CC[C@H]1OC(F)F [I-105, (23E,25E,27E,28E,32R,33S,34R,35R,37S,39S,41S,42S,44R,45R,55R)-42-[(1R)-2-[(1S,3R,4R)-4-(difluoromethoxy)-3-methoxy-cyclohexyl]-1-methyl-ethyl]-44,55-dihydroxy-45-methoxy-32,33,34,35,46,47-hexamethyl-41-[2-(oxetan-3-yloxy)ethoxy]-65,66-dioxa-56-azatricyclohexatriaconta-23,25,27(46),28(47)-tetraene-48,49,50,51,52-pentone] | Yes |
